# How the values were obtained:
# human TLR7 = biological target: T1, human TLR7 (Homo sapiens, UniProt Q9NYK1); experiment: HEK293-Blue hTLR7 Reporter Assay (QUANTI-BLUE, SEAP readout); assay type: cell-based; settings: HEK-Blue-hTLR7 cells, 24 hrs treatment, Table 1, B1-B232
# T1 construct: host or cells: HEK293 (HEK-Blue hTLR7)
# T1 sequence (Q9NYK1 27-1049): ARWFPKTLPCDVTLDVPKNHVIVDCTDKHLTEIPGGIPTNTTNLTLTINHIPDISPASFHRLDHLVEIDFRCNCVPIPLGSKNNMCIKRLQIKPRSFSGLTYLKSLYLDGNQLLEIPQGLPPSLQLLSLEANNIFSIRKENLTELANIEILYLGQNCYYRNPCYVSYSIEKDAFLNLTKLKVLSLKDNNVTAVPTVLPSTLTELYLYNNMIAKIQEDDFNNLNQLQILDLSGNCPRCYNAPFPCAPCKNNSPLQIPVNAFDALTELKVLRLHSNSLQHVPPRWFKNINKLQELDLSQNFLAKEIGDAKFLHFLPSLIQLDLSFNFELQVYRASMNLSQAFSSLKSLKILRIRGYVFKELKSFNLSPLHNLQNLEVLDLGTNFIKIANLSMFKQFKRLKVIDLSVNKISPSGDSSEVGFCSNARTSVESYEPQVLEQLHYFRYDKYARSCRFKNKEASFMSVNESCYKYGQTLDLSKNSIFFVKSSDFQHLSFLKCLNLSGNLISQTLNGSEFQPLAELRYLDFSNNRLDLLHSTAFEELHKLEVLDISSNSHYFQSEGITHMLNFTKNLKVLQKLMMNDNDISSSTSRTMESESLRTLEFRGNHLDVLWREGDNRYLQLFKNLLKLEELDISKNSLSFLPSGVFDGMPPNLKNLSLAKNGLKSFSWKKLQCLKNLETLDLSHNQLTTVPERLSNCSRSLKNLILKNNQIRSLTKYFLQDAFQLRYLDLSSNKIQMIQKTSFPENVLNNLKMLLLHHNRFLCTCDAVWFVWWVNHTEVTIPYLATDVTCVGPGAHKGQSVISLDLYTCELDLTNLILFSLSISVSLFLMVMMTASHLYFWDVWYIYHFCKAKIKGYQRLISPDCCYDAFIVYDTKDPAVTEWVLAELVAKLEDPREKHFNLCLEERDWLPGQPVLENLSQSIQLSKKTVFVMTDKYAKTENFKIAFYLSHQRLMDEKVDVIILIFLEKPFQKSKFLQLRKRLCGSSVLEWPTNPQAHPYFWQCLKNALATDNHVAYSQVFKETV
# Method in brief: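 HEK-Blue-hTLR7 cells expressing NF-κB/AP-1-driven SEAP, 4×10^4 cells/well, treated 24 h at 37° C with increasing compound concentrations. Supernatant SEAP measured with Quanti-blue substrate (10-30 min, 37° C) at 620-655 nm; EC50 from sigmoidal dose-response fit.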
# human TLR 8 protein = biological target: T2, human TLR 8 protein (Homo sapiens, UniProt Q9NR97); experiment: TLR8 Stimulation determined using HEK-Blue Detection; assay type: cell-based; settings: HEK-Blue hTLR8 cells, 16 hr, percentages of maximum activation with Resiquimod or Motolimod, Table 3
# T2 construct: expressed in transfected cells; host or cells: HEK293 (HEK-Blue hTLR8)
# T2 sequence (Q9NR97 27-1041): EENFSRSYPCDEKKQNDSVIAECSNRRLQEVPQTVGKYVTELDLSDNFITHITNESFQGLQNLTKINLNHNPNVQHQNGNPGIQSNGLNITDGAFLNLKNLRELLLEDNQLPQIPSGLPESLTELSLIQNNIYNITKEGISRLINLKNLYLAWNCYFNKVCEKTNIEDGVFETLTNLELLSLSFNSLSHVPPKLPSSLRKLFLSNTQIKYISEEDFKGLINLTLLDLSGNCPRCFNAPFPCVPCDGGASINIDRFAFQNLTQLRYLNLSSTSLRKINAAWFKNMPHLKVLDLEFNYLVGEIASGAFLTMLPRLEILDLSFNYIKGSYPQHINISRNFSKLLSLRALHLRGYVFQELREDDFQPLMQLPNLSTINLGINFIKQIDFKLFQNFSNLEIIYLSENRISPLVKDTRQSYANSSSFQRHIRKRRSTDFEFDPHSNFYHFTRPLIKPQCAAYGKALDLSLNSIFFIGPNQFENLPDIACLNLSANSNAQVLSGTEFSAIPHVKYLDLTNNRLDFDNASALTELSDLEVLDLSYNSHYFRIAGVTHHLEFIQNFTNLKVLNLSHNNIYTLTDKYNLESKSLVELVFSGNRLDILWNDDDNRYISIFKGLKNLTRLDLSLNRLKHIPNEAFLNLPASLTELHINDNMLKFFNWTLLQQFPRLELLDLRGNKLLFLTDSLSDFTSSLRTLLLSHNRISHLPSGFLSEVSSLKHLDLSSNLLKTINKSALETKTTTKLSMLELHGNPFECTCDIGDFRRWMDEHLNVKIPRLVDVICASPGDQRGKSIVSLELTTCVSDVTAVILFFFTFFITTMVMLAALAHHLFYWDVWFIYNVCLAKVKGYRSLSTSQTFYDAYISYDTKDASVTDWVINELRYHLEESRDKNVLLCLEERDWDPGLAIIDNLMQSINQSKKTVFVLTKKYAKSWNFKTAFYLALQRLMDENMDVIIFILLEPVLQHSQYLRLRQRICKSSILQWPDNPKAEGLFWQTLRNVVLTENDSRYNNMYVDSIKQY
# Source text: TLR8 Stimulation determined using HEK-Blue Detection
# This assay was designed for studying the stimulation of human TLR 8 protein in HEK-Blue hTLR8 tool cell line by monitoring the activation of NF-κB. HEK-Blue hTLR8 cells were obtained by co-transfection of the hTLR8 gene and an optimized secreted embryonic alkaline phosphatase (SEAP) reporter gene into HEK293 cells. The SEAP reporter gene was placed under the control of the IFN-β minimal promoter fused to five NF-κB and AP-1-binding sites. Stimulation with a TLR 8 ligand activates NF-κB and AP-1 which induce the expression of SEAP. Levels of SEAP can be easily determined with HEK-Blue Detection, a cell culture medium that allows for real-time detection of SEAP. HEK-Blue Detection contains all the nutrients necessary for cell growth and a specific SEAP color substrate. The hydrolysis of the substrate by SEAP produces a purple/blue color that can be measured with a spectrophotometer.
# When growing to 50-80% confluency, HEK-Blue hTLR7/8 cells were plated into 96-well plate (costar 3599) at a density of 40000 cells/well. Then compounds were added with serial dilutions over 10 points with a 1 nM-10 uM final concentration range in 0.1% DMSO/HEK-Blue Detection. The plates were then incubated for 16 hr at 37° C. in 5% CO2. The optical density at 620-655 nm was read on BMG PHERAstar FSX instrument. The EC50 for each compound was determined by calculating the percentages of the maximum activation identified with Resiquimod or Motolimod.
EC50 (human TLR7),EC50 (human TLR 8 protein),Compound
2.2 nM,> 10000 nM,"CCC[C@H](C)Nc1nc(N)c2ncc(Cc3cnc(N4CCC(CN(C)C)CC4)c(C)c3)n2n1 (single isomer, unassigned) [Compound B147]"
2.6 nM,> 10000 nM,"CCC[C@H](C)Nc1nc(N)c2ncc(Cc3cnc(N4CCC(CNC)CC4)c(C)c3)n2n1 (single isomer, unassigned) [Compound B213]"
3.7 nM,197 nM,"CCC[C@H](C)Oc1nc(N)c2ncc(Cc3cnc(N4CCNCC4)c(C)c3)n2n1 [Compound B118, (S)-7-((5-methyl-6-(piperazin-1-yl)pyridin-3-yl)methyl)-2-(pentan-2-yloxy)imidazo[2,1-f][1,2,4]triazin-4-amine]"
2.6 nM,262 nM,"CCC[C@H](C)Oc1nc(N)c2ncc(Cc3cnc(N4CCC(N(C)C)CC4)c(C)c3)n2n1 [Compound B122, (S)-7-((6-(4-(dimethylamino)piperidin-1-yl)-5-methylpyridin-3-yl)methyl)-2-(pentan-2-yloxy)imidazo[2,1-f][1,2,4]triazin-4-amine]"
1.9 nM,310 nM,"CCC[C@H](C)Oc1nc(N)c2ncc(Cc3cnc(N4CCC(CN(C)C)CC4)c(C)c3)n2n1 [Compound B123, (S)-7-((6-(4-((dimethylamino)methyl)piperidin-1-yl)-5-methylpyridin-3-yl)methyl)-2-(pentan-2-yloxy)imidazo[2,1-f][1,2,4]triazin-4-amine]"
8.7 nM,530 nM,"CCCC(CC)Oc1nc(N)c2ncc(Cc3cnc(N4CCNCC4)c(C)c3)n2n1 (stereo not drawn) [Compound B140, 2-(hexan-3-yloxy)-7-((5-methyl-6-(piperazin-1-yl)pyridin-3-yl)methyl)imidazo[2,1-f][1,2,4]triazin-4-amine]"
7 nM,150 nM,"CCCC(CCO)Oc1nc(N)c2ncc(Cc3cnc(N4CCNCC4)c(C)c3)n2n1 (stereo not drawn) [Compound B165, 3-((4-amino-7-((5-methyl-6-(piperazin-1-yl)pyridin-3-yl)methyl)imidazo[2,1-f][1,2,4]triazin-2-yl)oxy)hexan-1-ol]"
4.4 nM,> 10000 nM,"CCCC(CCC)Nc1nc(N)c2ncc(Cc3cnc(N4CCC(CN(C)C)CC4)c(C)c3)n2n1 [Compound B190, 7-((6-(4-((dimethylamino)methyl)piperidin-1-yl)-5-methylpyridin-3-yl)methyl)-N2-(heptan-4-yl)imidazo[2,1-f][1,2,4]triazine-2,4-diamine]"
6 nM,–,"CCCC(CC)Nc1nc(N)c2ncc(Cc3cnc(N4CCNCC4)c(C)c3)n2n1 (stereo not drawn) [Compound B223, N2-(hexan-3-yl)-7-((5-methyl-6-(piperazin-1-yl)pyridin-3-yl)methyl)imidazo[2,1-f][1,2,4]triazine-2,4-diamine]"
46 nM,–,"CCC[C@@H](CCO)Nc1nc(N)c2ncc(Cc3cnc(N4CCNCC4)c(C)c3)n2n1 [Compound B226, (S)-3-((4-amino-7-((5-methyl-6-(piperazin-1-yl)pyridin-3-yl)methyl)imidazo[2,1-f][1,2,4]triazin-2-yl)amino)hexan-1-ol]"
25 nM,–,"CCCC(Nc1nc(N)c2ncc(Cc3cnc(N4CCNCC4)c(C)c3)n2n1)C(F)(F)F (stereo not drawn) [Compound B227, 7-((5-methyl-6-(piperazin-1-yl)pyridin-3-yl)methyl)-N2-(1,1,1-trifluoropentan-2-yl)imidazo[2,1-f][1,2,4]triazine-2,4-diamine]"
37 nM,–,"CCC[C@@H](CCO)Nc1nc(N)c2ncc(Cc3cnc(N4CCC(CNC)CC4)c(C)c3)n2n1 [Compound B228, (S)-3-((4-amino-7-((5-methyl-6-(4-((methylamino)methyl)piperidin-1-yl)pyridin-3-yl)methyl)imidazo[2,1-f][1,2,4]triazin-2-yl)amino)hexan-1-ol]"
14 nM,–,"CCCC(CCO)Oc1nc(N)c2ncc(Cc3cnc(N4CCC(CNC)CC4)c(C)c3)n2n1 (stereo not drawn) [Compound B229, 3-((4-amino-7-((5-methyl-6-(4-((methylamino)methyl)piperidin-1-yl)pyridin-3-yl)methyl)imidazo[2,1-f][1,2,4]triazin-2-yl)oxy)hexan-1-ol]"
4.8 nM,–,"CCC[C@H](CC)Oc1nc(N)c2ncc(Cc3cnc(N4CCN(C(=O)CNC)CC4)c(C)c3)n2n1 [Compound B230, (S)-1-(4-(5-((4-amino-2-(hexan-3-yloxy)imidazo[2,1-f][1,2,4]triazin-7-yl)methyl)-3-methylpyridin-2-yl)piperazin-1-yl)-2-(methylamino)ethan-1-one]"
4.1 nM,–,"CCC[C@H](C)Nc1nc(N)c2ncc(Cc3cnc(N4CCN(C(=O)CNC)CC4)c(C)c3)n2n1 [Compound B231, (S)-1-(4-(5-((4-amino-2-(pentan-2-ylamino)imidazo[2,1-f][1,2,4]triazin-7-yl)methyl)-3-methylpyridin-2-yl)piperazin-1-yl)-2-(methylamino)ethan-1-one]"
31 nM,–,"CCCC(CO)Nc1nc(N)c2ncc(Cc3cnc(N4CCC(CNC)CC4)c(C)c3)n2n1 (stereo not drawn) [Compound B232, 2-((4-amino-7-((5-methyl-6-(4-((methylamino)methyl)piperidin-1-yl)pyridin-3-yl)methyl)imidazo[2,1-f][1,2,4]triazin-2-yl)amino)pentan-1-ol]"

Compound,EC50 (human TLR7),EC50 (human TLR 8 protein)
"CCCCOc1nc(N)c2ncc(Cc3ccc(C4CCNCC4)nc3F)n2n1 [Compound B21, 2-butoxy-7-((2-fluoro-6-(piperidin-4-yl)pyridin-3-yl)methyl)imidazo[2,1-f][1,2,4]triazin-4-amine]",115 nM,250 nM
"N2-methyl-7-((5-methyl-6-(piperazin-1-yl)pyridin-3-yl)methyl)-N2-propylimidazo[2,1-f][1,2,4]triazine-2,4-diamine [Compound B84]",1000 nM,–

# — patent US12612407B2, “Imidazo[2,1-f][1,2,4]triazin-4-amine derivatives as TLR7 agonist” (BEIGENE, LTD., priority 2020, dated 2026)
